The structures appear in SMILES notation. Calls of active or inactive are those of the source.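 Rule for the calls: active = compounds whose weighted score, built from EC50 under 10 micromolar and fitted span over a set limit, tops 52; inactive = the rest.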

The target in one assay is Broad substrate specificity ATP-binding cassette transporter ABCG2 (Homo sapiens) (UniProt Q9UNQ0). Briefly: ABCG2 efflux pump inhibitors, dose response, Ig-MXP3 cells, JC-1 substrate, flow cytometry (AID 489003). To be noted: JC-1 efflux. A general note: A flow cytometer gives signals particle by particle.
Chain of Broad substrate specificity ATP-binding cassette transporter ABCG2 (Homo sapiens) (Q9UNQ0 whole entry, looked up): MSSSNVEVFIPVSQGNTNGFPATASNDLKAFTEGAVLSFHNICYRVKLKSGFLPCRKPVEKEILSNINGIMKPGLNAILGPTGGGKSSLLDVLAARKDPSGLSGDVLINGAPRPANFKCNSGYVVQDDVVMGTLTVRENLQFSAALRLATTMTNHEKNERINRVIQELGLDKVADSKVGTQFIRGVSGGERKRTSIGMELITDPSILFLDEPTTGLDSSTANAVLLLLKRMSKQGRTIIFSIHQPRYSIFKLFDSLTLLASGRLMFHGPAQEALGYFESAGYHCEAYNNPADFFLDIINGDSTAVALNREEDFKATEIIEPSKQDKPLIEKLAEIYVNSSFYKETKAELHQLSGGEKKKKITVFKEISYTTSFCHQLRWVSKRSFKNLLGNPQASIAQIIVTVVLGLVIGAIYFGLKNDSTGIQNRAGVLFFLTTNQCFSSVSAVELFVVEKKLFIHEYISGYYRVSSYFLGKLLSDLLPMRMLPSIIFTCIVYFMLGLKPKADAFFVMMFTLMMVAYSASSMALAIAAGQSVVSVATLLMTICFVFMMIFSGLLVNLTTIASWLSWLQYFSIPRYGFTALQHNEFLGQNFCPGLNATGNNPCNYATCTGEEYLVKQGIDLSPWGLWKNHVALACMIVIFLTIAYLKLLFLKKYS
On to `COc1cccc(-c2cc3nc(-c4cccc(C(F)(F)F)c4)cc(N4CCN(C(=O)c5ccoc5)CC4)n3n2)c1`, for which the EC50 (as a rule, the midpoint of the concentration-response curve) was 788 nM.

For the compound `COc1cccc(-c2cc3nc(C)c(C(C)C)c(N4CCN(C(=O)c5ccoc5)CC4)n3n2)c1`, the concentration giving a half-maximal response (EC50) was 6020 nM.

Turning to `Cc1occc1C(=O)N1CCN(c2cc(-c3ccco3)nc3cc(-c4ccccc4)nn23)CC1`, the EC50 was 1690 nM.

`COc1cccc(-c2cc3nc(-c4cccc(C#N)c4)cc(N4CCN(C(=O)c5ccoc5)CC4)n3n2)c1`: the EC50 was 2530 nM.

As for `COc1cccc(-c2cc3nc(C)c(C)c(N4CCN(C(=O)c5ccoc5)CC4)n3n2)c1`, the EC50 was 3830 nM.

Consider `O=C(c1ccoc1)N1CCN(c2cc(-c3ccoc3)nc3cc(-c4ccccc4)nn23)CC1`, for which the 50% effective concentration (EC50) was 1590 nM.

Consider `O=C(c1ccoc1)N1CCN(c2cc(-c3ccc(F)cc3)nc3cc(-c4ccccc4)nn23)CC1`, for which the EC50 is 12100 nM.

Regarding `CC(=O)N1CCN(c2cc(-c3ccccc3)nc3cc(-c4ccccc4)nn23)CC1`, the EC50 is 2360 nM.

Regarding `COc1cccc(-c2cc3nc(-c4ccco4)cc(N4CCN(C(C)=O)CC4)n3n2)c1`, the EC50 is 892 nM.

Turning to `COc1cccc(-c2cc(N3CCN(C(=O)c4ccoc4)CC3)n3nc(-c4ccccc4)cc3n2)c1`, the EC50 is 3330 nM.

In the case of `COc1cccc(-c2cc(N3CCN(C(=O)c4ccoc4)CC3)n3nc(-c4cccc(OC)c4)cc3n2)c1`, the EC50 was 540 nM.

For the compound `Cc1ccc(-c2cc3nc(-c4ccco4)cc(N4CCN(Cc5ccoc5)CC4)n3n2)cc1`, the EC50 was 1820 nM.

Consider `Cc1ccc(-c2cc3nc(-c4ccco4)cc(N4CCN(C(=O)c5ccoc5)CC4)n3n2)cc1`, for which the EC50 was 8180 nM.

Consider `O=C(c1ccsc1)N1CCN(c2cc(-c3ccco3)nc3cc(-c4ccccc4)nn23)CC1`, for which the EC50 is 2870 nM.

On to `O=C(c1ccoc1)N1CCN(c2cc(-c3cccc(F)c3)nc3cc(-c4cccc(Cl)c4)nn23)CC1`, for which the EC50 was 2300 nM.

Turning to `Cc1nc2cc(-c3ccc(Br)cc3)nn2c(N2CCN(C(=O)c3ccoc3)CC2)c1C`, the EC50 was 10100 nM.

For the compound `CN(CCCN(C)c1cc(-c2ccco2)nc2cc(-c3ccccc3)nn12)C(=O)c1ccoc1`, the EC50 was 2720 nM.

Consider `c1ccc(-c2cc3nc(-c4ccco4)cc(N4CCNCC4)n3n2)cc1`, for which the EC50 was 6980 nM.

Regarding `O=C(c1ccoc1)N1CCN(c2cc(-c3cccc(F)c3)nc3cc(-c4ccccc4)nn23)CC1`, the EC50 was 2110 nM.

On to `CC(=O)N1CCN(c2cc(-c3ccco3)nc3cc(-c4cccc(Cl)c4)nn23)CC1`, for which the EC50 was 626 nM.

For the compound `COc1cc(OC)cc(-c2cc3nc(C)c(C)c(N4CCN(C(=O)c5ccoc5)CC4)n3n2)c1`, the concentration giving a half-maximal response (EC50) was 664 nM.

In the case of `O=C(c1ccoc1)N1CCN(c2cc(-c3ccco3)nc3cc(-c4ccc(Cl)cc4)nn23)CC1`, the EC50 is 2720 nM.

Regarding `COc1ccccc1-c1cc2nc(-c3ccco3)cc(N3CCN(C(=O)c4ccoc4)CC3)n2n1`, the EC50 was 4270 nM.

Consider `O=C(c1ccoc1)N1CCN(c2cc(-c3ccco3)nc3cc(-c4cccc(-c5ccco5)c4)nn23)CC1`, for which the EC50 is 503 nM.

For `Cc1nc2cc(-c3cccc(Cl)c3)nn2c(N2CCN(C(=O)c3ccoc3)CC2)c1C`, the EC50 is 9310 nM.

With `COc1cccc(-c2cc3nc(C)c(C)c(N4CCN(Cc5ccco5)CC4)n3n2)c1`, the EC50 is 393 nM.

For the compound `COc1ccc(-c2cc3nc(C)c(C)c(N4CCN(C(=O)c5ccco5)CC4)n3n2)cc1`, the EC50 was 2680 nM.

Regarding `O=C(c1ccco1)N1CCN(c2cc(-c3ccccc3)nc3ncnn23)CC1`, the concentration giving a half-maximal response (EC50) was 3550 nM.

As for `Cc1nc2cc(-c3ccc(F)cc3)nn2c(N2CCN(C(=O)c3ccco3)CC2)c1C`, the EC50 was 7640 nM.

Turning to `O=C(c1ccoc1)N1CCN(c2cc(-c3ccco3)nc3cc(-c4ccco4)nn23)CC1`, the EC50 was 697 nM.

Take `CC(=O)N1CCN(c2c(C)c(C)nc3cc(-c4ccc(F)cc4)nn23)CC1`: the EC50 entry was “inactive”.

In the case of `O=C(C1CCCO1)N1CCN(c2c3c(nc4cc(-c5cccc(F)c5)nn24)CCCC3)CC1` (stereo not given), the EC50 entry is “inactive”.

On to `CNCCN(C)c1cc(-c2ccco2)nc2cc(-c3ccccc3)nn12`, for which the EC50 entry is “inactive”.

As for `O=C1CN(c2cc(-c3ccco3)nc3cc(-c4ccccc4)nn23)CCN1c1ccccc1`, the EC50 was 1360 nM.

Regarding `CC(=O)N1CCN(c2cc(-c3ccco3)nc3cc(-c4ccccc4)nn23)CC1`, the EC50 result was “inactive”.

In the case of `O=C(c1ccco1)N1CCN(c2cc(-c3ccco3)nc3cc(-c4ccccc4)nn23)CC1`, the EC50 was 852 nM.

Regarding `Cc1cc(N2CCN(C(=O)c3ccco3)CC2)n2ncc(-c3ccccc3)c2n1`, the EC50 was 7520 nM.

Take `O=C(c1ccoc1)N1CCN(c2cc(-c3ccco3)nc3cc(-c4cccc(Cl)c4)nn23)CC1`: the EC50 was 2960 nM.

For `O=C(c1ccoc1)N1CCN(c2cc(-c3cccs3)nc3cc(-c4ccccc4)nn23)CC1`, the EC50 is 1660 nM.

`Cc1nc2cc(-c3cccc(F)c3)nn2c(N2CCN(C(=O)c3ccco3)CC2)c1C`: the EC50 was 1430 nM.

As to `O=C(Nc1ccccc1)C1CCN(c2cc(-c3ccco3)nc3cc(-c4ccccc4)nn23)CC1`, the EC50 is 6490 nM.

Regarding `O=C(OCc1ccccc1)N1CCN(c2cc(-c3ccco3)nc3cc(-c4ccccc4)nn23)CC1`, the EC50 is 2730 nM.

As for `O=C(c1coc2ccccc12)N1CCN(c2cc(-c3ccco3)nc3cc(-c4ccccc4)nn23)CC1`, the EC50 is 1460 nM.

Take `Cc1ccc(-c2nc3nc(C)cc(N4CCN(C(=O)c5ccco5)CC4)n3n2)cc1`: the EC50 was 4170 nM.

With `Cc1cccc(-c2cc3nc(-c4ccco4)cc(N4CCN(C(=O)c5ccoc5)CC4)n3n2)c1`, the EC50 was 9090 nM.

In the case of `Cc1ccc(-c2cc(N3CCN(C(=O)c4ccoc4)CC3)n3nc(-c4ccccc4)cc3n2)o1`, the EC50 is 1450 nM.

In the case of `Cc1nc2cc(-c3ccccc3)nn2c(N2CCN(C(=O)c3ccoc3)CC2)c1C`, the EC50 is 2000 nM.

Regarding `COC(=O)c1cccc(-c2cc(N3CCN(C(=O)c4ccoc4)CC3)n3nc(-c4cccc(OC)c4)cc3n2)c1`, the EC50 is 1680 nM.

On to `COc1cccc(-c2cc3nc(-c4ccccc4)cc(N4CCN(C(=O)c5ccoc5)CC4)n3n2)c1`, for which the EC50 was 1920 nM.

For `COc1cccc(-c2cc3nc(C)c(C)c(N4CCN(C(=O)c5ccco5)CC4)n3n2)c1`, the EC50 was 7100 nM.

Regarding `COc1ccc(-c2cc3nc(C)c(C)c(N4CCN(C(C)=O)CC4)n3n2)cc1`, the EC50 is 6390 nM.

With `COc1cccc(-c2cc3nc(-c4ccccc4)c(C)c(N4CCN(C(=O)c5ccoc5)CC4)n3n2)c1`, the EC50 was 1670 nM.

Consider `O=C(c1ccoc1)N1CCN(c2cc(-c3ccccc3)nc3cc(-c4ccncc4)nn23)CC1`, for which the EC50 was 1030 nM.

Turning to `COc1ccccc1-c1cc(N2CCN(C(=O)c3ccoc3)CC2)n2nc(-c3ccccc3)cc2n1`, the EC50 was 1870 nM.

For the compound `CC1CN(C(=O)c2ccoc2)CCN1c1cc(-c2ccco2)nc2cc(-c3ccccc3)nn12` (stereo not given), the EC50 was 2920 nM.

Turning to `CC1CN(C(=O)OC(C)(C)C)CCN1c1cc(-c2ccco2)nc2cc(-c3ccccc3)nn12` (stereo not given), the EC50 is 3440 nM.

Regarding `CC(=O)N1CCN(c2cc(C)nc3cc(-c4cccc(F)c4)nn23)CC1`, the EC50 entry is “inactive”.

On to `COc1ccc(-c2cc(N3CCN(C(=O)c4ccoc4)CC3)n3nc(-c4ccccc4)cc3n2)cc1`, for which the EC50 was 3640 nM.

For `COc1ccc(-c2cc3nc(C)c(C)c(N4CCN(C(=O)c5ccoc5)CC4)n3n2)cc1`, the EC50 is 1200 nM.

Still in this assay, the particulars now being: JC-1 efflux, at 50 µM (top of the series).
As for `COc1ccccc1-c1c(C)nn2c(N3CCN(C(=O)c4ccco4)CC3)cc(C)nc12`, the inhibition result is “inactive”.

For the origin of these results see PubChem BioAssay AID489003 (NMMLSC, 2010).
